Results taken from PubChem BioAssay (NCI).
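Dose response: 5 concentrations. Exposure: 48 h. Format: 96-well plates. Endpoint: linear interpolation; highest concentration if not reached. GI50 = concentration required for 50% inhibition of growth. TGI denotes the concentration required for complete inhibition of growth.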

tested on: UACC-257 melanoma; assay: growth of human tumour cells (NCI), 48 h

Compound	TGI	GI50
COC(=O)c1s/c(=N\C(=S)N(C)C)n(-c2ccc(Cl)cc2)c1C(=O)OC	> 100 µM	
O=C(O)CCSC(CC1(c2ccc(Cl)cc2)NC(=O)CCS1)c1ccccc1 (stereo unspecified)	49.1 µM	
C=C1C(=O)OC2CC(C)C(C(O)CC(C)O)=CCC12 (stereo unspecified)	29.8 µM	
O=c1nc(N2CCNCC2)oc2cc(Cl)oc(=O)c12	27.7 µM	
COc1ccc(C2=C(c3ccc(OC)cc3)C(=O)N3CCCC3C2)cc1 (stereo unspecified)	> 100 µM	32.9 µM

tested on: NCI/ADR-RES ovarian; assay: growth of human tumour cells (NCI), 48 h

Compound	TGI	GI50
O=C(O)CCSC(CC1(c2ccc(Cl)cc2)NC(=O)CCS1)c1ccccc1 (stereo unspecified)	49.3 µM	
C=C1C(=O)OC2CC(C)C(C(O)CC(C)O)=CCC12 (stereo unspecified)	41 µM	
O=c1nc(N2CCNCC2)oc2cc(Cl)oc(=O)c12	25.8 µM	
COc1ccc(C2=C(c3ccc(OC)cc3)C(=O)N3CCCC3C2)cc1 (stereo unspecified)	> 100 µM	10.3 µM

tested on: KM20L2 colon; assay: growth of human tumour cells (NCI), 48 h

Compound	TGI
COC(=O)c1s/c(=N\C(=S)N(C)C)n(-c2ccc(Cl)cc2)c1C(=O)OC	> 100 µM
COC1CCCCN1C(=O)c1ccccc1 (stereo unspecified)	> 25.3 µM

tested on: MCF7 breast; assay: growth of human tumour cells (NCI), 48 h

Compound	TGI	GI50
O=C(O)CCSC(CC1(c2ccc(Cl)cc2)NC(=O)CCS1)c1ccccc1 (stereo unspecified)	> 55.3 µM	
C=C1C(=O)OC2CC(C)C(C(O)CC(C)O)=CCC12 (stereo unspecified)	28.1 µM	
O=c1nc(N2CCNCC2)oc2cc(Cl)oc(=O)c12	17.8 µM	
COc1ccc(C2=C(c3ccc(OC)cc3)C(=O)N3CCCC3C2)cc1 (stereo unspecified)	> 100 µM	12.8 µM

tested on: OVCAR-5 ovarian; assay: growth of human tumour cells (NCI), 48 h

Compound	TGI	GI50
COC(=O)c1s/c(=N\C(=S)N(C)C)n(-c2ccc(Cl)cc2)c1C(=O)OC	> 100 µM	
COC1CCCCN1C(=O)c1ccccc1 (stereo unspecified)	> 25.3 µM	
O=C(O)CCSC(CC1(c2ccc(Cl)cc2)NC(=O)CCS1)c1ccccc1 (stereo unspecified)	37 µM	
C=C1C(=O)OC2CC(C)C(C(O)CC(C)O)=CCC12 (stereo unspecified)	30.7 µM	
O=c1nc(N2CCNCC2)oc2cc(Cl)oc(=O)c12	30 µM	
COc1ccc(C2=C(c3ccc(OC)cc3)C(=O)N3CCCC3C2)cc1 (stereo unspecified)	> 100 µM	> 83.7 µM

tested on: SK-MEL-28 melanoma; assay: growth of human tumour cells (NCI), 48 h

Compound	TGI	GI50
COC(=O)c1s/c(=N\C(=S)N(C)C)n(-c2ccc(Cl)cc2)c1C(=O)OC	> 100 µM	
COC1CCCCN1C(=O)c1ccccc1 (stereo unspecified)	> 25.3 µM	
O=C(O)CCSC(CC1(c2ccc(Cl)cc2)NC(=O)CCS1)c1ccccc1 (stereo unspecified)	37.7 µM	
C=C1C(=O)OC2CC(C)C(C(O)CC(C)O)=CCC12 (stereo unspecified)	23.1 µM	
O=c1nc(N2CCNCC2)oc2cc(Cl)oc(=O)c12	15.8 µM	
COc1ccc(C2=C(c3ccc(OC)cc3)C(=O)N3CCCC3C2)cc1 (stereo unspecified)	> 100 µM	54.6 µM

tested on: BT-549 breast; assay: growth of human tumour cells (NCI), 48 h

Compound	TGI	GI50
O=C(O)CCSC(CC1(c2ccc(Cl)cc2)NC(=O)CCS1)c1ccccc1 (stereo unspecified)	31.1 µM	
C=C1C(=O)OC2CC(C)C(C(O)CC(C)O)=CCC12 (stereo unspecified)	30.2 µM	
O=c1nc(N2CCNCC2)oc2cc(Cl)oc(=O)c12	6.26 µM	
COc1ccc(C2=C(c3ccc(OC)cc3)C(=O)N3CCCC3C2)cc1 (stereo unspecified)	> 89.8 µM	17.1 µM

tested on: T-47D breast; assay: growth of human tumour cells (NCI), 48 h

Compound	TGI	GI50
O=C(O)CCSC(CC1(c2ccc(Cl)cc2)NC(=O)CCS1)c1ccccc1 (stereo unspecified)	> 60 µM	
C=C1C(=O)OC2CC(C)C(C(O)CC(C)O)=CCC12 (stereo unspecified)	23.6 µM	
O=c1nc(N2CCNCC2)oc2cc(Cl)oc(=O)c12	> 21.7 µM	
COc1ccc(C2=C(c3ccc(OC)cc3)C(=O)N3CCCC3C2)cc1 (stereo unspecified)	> 100 µM	28 µM

tested on: DMS 114 small cell lung; assay: growth of human tumour cells (NCI), 48 h

Compound	TGI
COC1CCCCN1C(=O)c1ccccc1 (stereo unspecified)	> 25.3 µM

tested on: SNB-75 CNS; assay: growth of human tumour cells (NCI), 48 h

Compound	TGI	GI50
COC(=O)c1s/c(=N\C(=S)N(C)C)n(-c2ccc(Cl)cc2)c1C(=O)OC	> 10 µM	
COC1CCCCN1C(=O)c1ccccc1 (stereo unspecified)	> 25.3 µM	
O=C(O)CCSC(CC1(c2ccc(Cl)cc2)NC(=O)CCS1)c1ccccc1 (stereo unspecified)	32.3 µM	
C=C1C(=O)OC2CC(C)C(C(O)CC(C)O)=CCC12 (stereo unspecified)	47.2 µM	
O=c1nc(N2CCNCC2)oc2cc(Cl)oc(=O)c12	17.4 µM	
COc1ccc(C2=C(c3ccc(OC)cc3)C(=O)N3CCCC3C2)cc1 (stereo unspecified)	> 72.7 µM	15.6 µM

tested on: NCI-H460 lung; assay: growth of human tumour cells (NCI), 48 h

Compound	TGI	GI50
COC(=O)c1s/c(=N\C(=S)N(C)C)n(-c2ccc(Cl)cc2)c1C(=O)OC	> 100 µM	
O=C(O)CCSC(CC1(c2ccc(Cl)cc2)NC(=O)CCS1)c1ccccc1 (stereo unspecified)	64.7 µM	
C=C1C(=O)OC2CC(C)C(C(O)CC(C)O)=CCC12 (stereo unspecified)	46.6 µM	
O=c1nc(N2CCNCC2)oc2cc(Cl)oc(=O)c12	22.4 µM	
COc1ccc(C2=C(c3ccc(OC)cc3)C(=O)N3CCCC3C2)cc1 (stereo unspecified)	> 40.9 µM	1.81 µM

tested on: TK-10 renal; assay: growth of human tumour cells (NCI), 48 h

Compound	TGI	GI50
COC(=O)c1s/c(=N\C(=S)N(C)C)n(-c2ccc(Cl)cc2)c1C(=O)OC	> 100 µM	
COC1CCCCN1C(=O)c1ccccc1 (stereo unspecified)	> 25.3 µM	
O=C(O)CCSC(CC1(c2ccc(Cl)cc2)NC(=O)CCS1)c1ccccc1 (stereo unspecified)	36 µM	
C=C1C(=O)OC2CC(C)C(C(O)CC(C)O)=CCC12 (stereo unspecified)	23.3 µM	
O=c1nc(N2CCNCC2)oc2cc(Cl)oc(=O)c12	23.9 µM	
COc1ccc(C2=C(c3ccc(OC)cc3)C(=O)N3CCCC3C2)cc1 (stereo unspecified)	> 100 µM	22.8 µM

tested on: SW-620 colon; assay: growth of human tumour cells (NCI), 48 h

Compound	TGI	GI50
COC(=O)c1s/c(=N\C(=S)N(C)C)n(-c2ccc(Cl)cc2)c1C(=O)OC	> 100 µM	
COC1CCCCN1C(=O)c1ccccc1 (stereo unspecified)	> 25.3 µM	
O=C(O)CCSC(CC1(c2ccc(Cl)cc2)NC(=O)CCS1)c1ccccc1 (stereo unspecified)	41.7 µM	
C=C1C(=O)OC2CC(C)C(C(O)CC(C)O)=CCC12 (stereo unspecified)	37.6 µM	
O=c1nc(N2CCNCC2)oc2cc(Cl)oc(=O)c12	21.1 µM	
COc1ccc(C2=C(c3ccc(OC)cc3)C(=O)N3CCCC3C2)cc1 (stereo unspecified)	> 100 µM	15.4 µM

tested on: SK-MEL-2 melanoma; assay: growth of human tumour cells (NCI), 48 h

Compound	TGI	GI50
COC(=O)c1s/c(=N\C(=S)N(C)C)n(-c2ccc(Cl)cc2)c1C(=O)OC	> 100 µM	
COC1CCCCN1C(=O)c1ccccc1 (stereo unspecified)	> 25.3 µM	
O=C(O)CCSC(CC1(c2ccc(Cl)cc2)NC(=O)CCS1)c1ccccc1 (stereo unspecified)	38.7 µM	
C=C1C(=O)OC2CC(C)C(C(O)CC(C)O)=CCC12 (stereo unspecified)	38.5 µM	
O=c1nc(N2CCNCC2)oc2cc(Cl)oc(=O)c12	29.1 µM	
COc1ccc(C2=C(c3ccc(OC)cc3)C(=O)N3CCCC3C2)cc1 (stereo unspecified)	> 100 µM	18.3 µM

tested on: SK-OV-3 ovarian; assay: growth of human tumour cells (NCI), 48 h

Compound	TGI	GI50
COC(=O)c1s/c(=N\C(=S)N(C)C)n(-c2ccc(Cl)cc2)c1C(=O)OC	> 10 µM	
COC1CCCCN1C(=O)c1ccccc1 (stereo unspecified)	> 25.3 µM	
O=C(O)CCSC(CC1(c2ccc(Cl)cc2)NC(=O)CCS1)c1ccccc1 (stereo unspecified)	38 µM	
C=C1C(=O)OC2CC(C)C(C(O)CC(C)O)=CCC12 (stereo unspecified)	> 100 µM	
O=c1nc(N2CCNCC2)oc2cc(Cl)oc(=O)c12	33.2 µM	
COc1ccc(C2=C(c3ccc(OC)cc3)C(=O)N3CCCC3C2)cc1 (stereo unspecified)	> 100 µM	26.4 µM

tested on: SK-MEL-5 melanoma; assay: growth of human tumour cells (NCI), 48 h

Compound	TGI	GI50
COC(=O)c1s/c(=N\C(=S)N(C)C)n(-c2ccc(Cl)cc2)c1C(=O)OC	> 10 µM	
COC1CCCCN1C(=O)c1ccccc1 (stereo unspecified)	> 25.3 µM	
O=C(O)CCSC(CC1(c2ccc(Cl)cc2)NC(=O)CCS1)c1ccccc1 (stereo unspecified)	48 µM	
C=C1C(=O)OC2CC(C)C(C(O)CC(C)O)=CCC12 (stereo unspecified)	41.2 µM	
O=c1nc(N2CCNCC2)oc2cc(Cl)oc(=O)c12	19 µM	
COc1ccc(C2=C(c3ccc(OC)cc3)C(=O)N3CCCC3C2)cc1 (stereo unspecified)	84.3 µM	10.1 µM

tested on: MOLT-4 leukemia; assay: growth of human tumour cells (NCI), 48 h

Compound	TGI
COC(=O)c1s/c(=N\C(=S)N(C)C)n(-c2ccc(Cl)cc2)c1C(=O)OC	> 100 µM
COC1CCCCN1C(=O)c1ccccc1 (stereo unspecified)	> 25.3 µM
O=C(O)CCSC(CC1(c2ccc(Cl)cc2)NC(=O)CCS1)c1ccccc1 (stereo unspecified)	> 100 µM
C=C1C(=O)OC2CC(C)C(C(O)CC(C)O)=CCC12 (stereo unspecified)	32.6 µM
O=c1nc(N2CCNCC2)oc2cc(Cl)oc(=O)c12	7.37 µM
